{
  "source": "paper PMC11957517",
  "about": "“Efficient production of hydroxysalidroside in Escherichia coli via enhanced glycosylation and semi-rational design of UGT85A1” (Synthetic and Systems Biotechnology, 2025)",
  "key": {"UGT13": {"biological_target": "T1, UGT13 (Oryza sativa, UniProt Q6Z684)", "T1 construct": "synthesized gene in pETDuet-1, E. coli BL21(DE3) whole cells with pCDFDuet-pgm-galU", "T1 sequence (Q6Z684 1-485)": "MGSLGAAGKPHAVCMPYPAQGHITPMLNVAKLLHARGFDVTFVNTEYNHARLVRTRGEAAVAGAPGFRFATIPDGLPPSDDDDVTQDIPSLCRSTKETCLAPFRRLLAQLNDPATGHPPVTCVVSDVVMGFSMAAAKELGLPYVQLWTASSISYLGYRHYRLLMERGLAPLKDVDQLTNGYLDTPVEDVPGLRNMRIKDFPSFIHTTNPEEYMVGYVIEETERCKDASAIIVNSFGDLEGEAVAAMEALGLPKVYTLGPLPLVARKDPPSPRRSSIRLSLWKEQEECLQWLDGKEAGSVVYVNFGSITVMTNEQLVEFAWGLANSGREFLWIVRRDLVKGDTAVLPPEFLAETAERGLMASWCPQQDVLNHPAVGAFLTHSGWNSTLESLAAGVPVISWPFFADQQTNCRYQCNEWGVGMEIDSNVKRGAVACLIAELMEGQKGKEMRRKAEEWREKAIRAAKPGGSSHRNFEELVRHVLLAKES", "test": "whole-cell conversion in E. coli, HPLC", "type": "cell-based", "conditions": "intracellular UDPG, pgm and galU overexpressed, 48 h"}, "UGT33": {"biological_target": "T2, UGT33 (Rhodiola rosea, UniProt A0A2I6B3R9)", "T2 construct": "synthesized gene in pETDuet-1, E. coli BL21(DE3) whole cells with pCDFDuet-pgm-galU", "T2 sequence (A0A2I6B3R9 1-498)": "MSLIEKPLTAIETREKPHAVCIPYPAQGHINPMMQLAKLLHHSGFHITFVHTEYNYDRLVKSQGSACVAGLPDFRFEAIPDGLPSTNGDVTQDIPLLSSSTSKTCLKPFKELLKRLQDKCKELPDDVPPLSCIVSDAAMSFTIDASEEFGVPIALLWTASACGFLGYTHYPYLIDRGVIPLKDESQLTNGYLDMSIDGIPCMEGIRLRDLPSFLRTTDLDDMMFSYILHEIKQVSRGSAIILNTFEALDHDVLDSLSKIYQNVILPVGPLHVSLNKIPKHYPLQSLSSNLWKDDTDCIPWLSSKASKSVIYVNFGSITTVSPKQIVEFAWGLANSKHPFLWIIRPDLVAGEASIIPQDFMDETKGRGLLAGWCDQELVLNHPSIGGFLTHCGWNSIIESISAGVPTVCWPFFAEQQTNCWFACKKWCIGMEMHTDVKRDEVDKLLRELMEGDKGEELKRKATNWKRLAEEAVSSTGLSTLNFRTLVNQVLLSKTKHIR", "test": "whole-cell conversion in E. coli, HPLC", "type": "cell-based", "conditions": "intracellular UDPG, pgm and galU overexpressed, 48 h"}},
  "data": [
    {"smiles": "OCCc1ccc(O)c(O)c1", "note": "[hydroxytyrosol]", "values": [
      {"measurement": "whole-cell conversion in E. coli, HPLC", "setting": "UGT13", "result": "all these enzymes could catalyze the synthesis of hydroxysalidroside"},
      {"measurement": "whole-cell conversion in E. coli, HPLC", "setting": "UGT33", "result": "all these enzymes could catalyze the synthesis of hydroxysalidroside"}
    ]}
  ]
}
